Ki and IC50 data for 25 compounds are collected here from patent publication US20060093617A1, “Peptides for inducing a CTL and/or HTL response to hepatitis C virus” (Innogenetics, N.V., priority 2004, published 2006).

Molecules are shown by their SMILES. Where a SMILES comes first, the peptide text is derived from it.

For one test, the target named is T1, HLA-Cw06 (Homo sapiens, UniProt P10321, A176E/A330V/C350S/L171W/L180W/L218V/M285V/M309V/M331V/N104K/P208H/Q277E/Q291P/R121W/R243W/S101N/S123Y/S297R/T329A/T363A/V319A/V328M).
T1 construct: endogenous in cells
The test is described as follows: HLA class I competition cell-based binding assay.
Regarding `CC[C@H](C)[C@H](NC(=O)[C@H](CC(C)C)NC(=O)[C@H](Cc1c[nH]cn1)NC(=O)[C@H](CCCNC(=N)N)NC(=O)CNC(=O)CNC(=O)[C@H](CCCCN)NC(=O)[C@@H](NC(=O)[C@@H](N)C(C)C)[C@@H](C)CC)C(=O)N[C@@H](Cc1ccccc1)C(=O)O`, the Ki (as a rule, the equilibrium dissociation constant of an inhibitor or competing ligand from its target) is 17500 nM. That is a double-digit micromolar value.
On the same count and under the same terms, with `CC[C@H](C)[C@H](NC(=O)[C@@H](NC(=O)[C@@H](N)CCC(=O)O)C(C)C)C(=O)N[C@@H](CCCCN)C(=O)NCC(=O)NCC(=O)N[C@@H](CCCNC(=N)N)C(=O)N[C@@H](Cc1c[nH]cn1)C(=O)N[C@@H](CC(C)C)C(=O)O` the figure was 12800 nM; with `CC(C)C[C@H](NC(=O)[C@H](CCCNC(=N)N)NC(=O)[C@@H](N)Cc1ccc(O)cc1)C(=O)NCC(=O)N[C@@H](C)C(=O)N[C@H](C(=O)N[C@@H](CCC(N)=O)C(=O)N[C@@H](CC(N)=O)C(=O)N[C@@H](CCC(=O)O)C(=O)N[C@H](C(=O)O)C(C)C)C(C)C`, 217 nM; with `CC(C)[C@H](NC(=O)CNC(=O)[C@H](CCCNC(=N)N)NC(=O)[C@@H](NC(=O)[C@H](CS)NC(=O)[C@@H](NC(=O)[C@H](C)NC(=O)[C@H](C)NC(=O)[C@H](CCCNC(=N)N)NC(=O)[C@@H](N)Cc1ccccc1)C(C)C)[C@@H](C)O)C(=O)O` (H-FRAAVCTRGV-OH; N-terminus and C-terminus assumed), 486 nM.
`CC[C@H](C)[C@H](NC(=O)[C@H](CC(C)C)NC(=O)[C@H](CCCNC(=N)N)NC(=O)[C@H](C)NC(=O)[C@@H]1CCCN1C(=O)[C@H](CCCCN)NC(=O)[C@@H](N)CCCNC(=N)N)C(=O)N[C@H](C(=O)N[C@@H](Cc1ccccc1)C(=O)O)C(C)C` (H-RKPARLIVF-OH; N-terminus and C-terminus assumed) had a Ki of 8280 nM. This Ki lies about 17-fold higher than the previous one.
`CC(C)[C@H](NC(=O)[C@H](CCCNC(=N)N)NC(=O)[C@H](CCC(N)=O)NC(=O)CNC(=O)[C@@H]1CCCN1C(=O)[C@H](CO)NC(=O)[C@H](Cc1ccc(O)cc1)NC(=O)[C@H](CCC(N)=O)NC(=O)[C@@H](N)Cc1ccccc1)C(=O)O` (H-FQYSPGQRV-OH) registered a Ki of 387 nM.
The compound `CC(C)C[C@H](NC(=O)[C@@H](NC(=O)[C@H](CCCCN)NC(=O)[C@H](Cc1ccc(O)cc1)NC(=O)CNC(=O)[C@H](CCC(N)=O)NC(=O)[C@H](C)NC(=O)[C@H](C)N)C(C)C)C(=O)N[C@H](C(=O)O)C(C)C` (H-AAQGYKVLV-OH; N-terminus and C-terminus assumed) came in with an inhibition constant Ki of 6320 nM.
In turn, `CC[C@H](C)[C@H](NC(=O)CNC(=O)[C@H](CCCNC(=N)N)NC(=O)[C@H](CCCNC(=N)N)NC(=O)CN)C(=O)N[C@@H](Cc1ccc(O)cc1)C(=O)N[C@@H](CCCNC(=N)N)C(=O)N[C@@H](Cc1ccccc1)C(=O)N[C@H](C(=O)O)C(C)C` displayed an inhibition constant Ki of 576 nM.
As to `CC(C)C[C@H](NC(=O)CNC(=O)[C@H](CCCNC(=N)N)NC(=O)[C@H](Cc1ccc(O)cc1)NC(=O)[C@H](Cc1ccc(O)cc1)NC(=O)[C@H](C)NC(=O)[C@@H](NC(=O)[C@H](C)NC(=O)[C@@H](N)CC(N)=O)C(C)C)C(=O)O`, the Ki came to 10800 nM. This Ki lies about 19-fold higher than the previous one.
On the same count and under the same terms, with `CC(C)C[C@H](NC(=O)[C@@H](NC(=O)[C@H](CCCCN)NC(=O)[C@H](Cc1ccc(O)cc1)NC(=O)CNC(=O)[C@H](CCC(N)=O)NC(=O)[C@H](C)NC(=O)[C@H](C)NC(=O)[C@@H](N)Cc1ccc(O)cc1)C(C)C)C(=O)N[C@H](C(=O)O)C(C)C` (H-YAAQGYKVLV-OH; N-terminus and C-terminus assumed) the figure was 9210 nM.
Same read-out and setting: with `CC(C)C[C@H](NC(=O)[C@@H](NC(=O)[C@H](CCC(N)=O)NC(=O)[C@H](CC(C)C)NC(=O)[C@H](CCCNC(=N)N)NC(=O)[C@H](CC(=O)O)NC(=O)[C@H](Cc1ccccc1)NC(=O)[C@@H](NC(=O)[C@@H](N)C(C)C)[C@@H](C)O)C(C)C)C(=O)O` the figure was 1130 nM.
The same measure, in the same setting: the result for `CC[C@H](C)[C@H](NC(=O)[C@H](CCC(N)=O)NC(=O)CNC(=O)CNC(=O)CNC(=O)[C@@H]1CCCN1C(=O)[C@H](Cc1ccccc1)NC(=O)[C@H](CCCCN)NC(=O)[C@@H](N)C(C)C)C(=O)N[C@H](C(=O)O)C(C)C` (H-VKFPGGGQIV-OH; N-terminus and C-terminus assumed) reads 417 nM.
`CC[C@H](C)[C@H](NC(=O)[C@H](CC(C)C)NC(=O)[C@H](CCCNC(=N)N)NC(=O)[C@H](C)NC(=O)[C@@H]1CCCN1C(=O)[C@H](CCCCN)NC(=O)[C@H](CCCNC(=N)N)NC(=O)CN)C(=O)N[C@H](C(=O)O)C(C)C` (H-GRKPARLIV-OH; N-terminus and C-terminus assumed) yielded a Ki of 2040 nM.
Still for that read-out and setting: with `CC(C)[C@H](NC(=O)CNC(=O)[C@H](CO)NC(=O)[C@H](C)NC(=O)[C@H](CCCNC(=N)N)NC(=O)[C@H](CS)NC(=O)[C@H](CCCNC(=N)N)NC(=O)[C@H](CCCNC(=N)N)NC(=O)[C@@H](N)Cc1ccc(O)cc1)C(=O)O` the figure was 634 nM; with `CC[C@H](C)[C@H](N)C(=O)N[C@@H](CCCNC(=N)N)C(=O)N[C@@H](CO)C(=O)N[C@@H](CC(C)C)C(=O)N[C@H](C(=O)N[C@@H](CCC(=O)O)C(=O)N[C@@H](CCCNC(=N)N)C(=O)N[C@@H](CC(C)C)C(=O)N[C@@H](Cc1ccc(O)cc1)C(=O)N[C@H](C(=O)O)[C@@H](C)CC)[C@@H](C)O` (H-IRSLTERLYI-OH; N-terminus and C-terminus assumed), 6220 nM; with `CC(C)C[C@H](NC(=O)[C@H](C)NC(=O)[C@H](CCCNC(=N)N)NC(=O)[C@H](C)N)C(=O)N[C@@H](C)C(=O)N[C@@H](Cc1c[nH]cn1)C(=O)NCC(=O)N[C@H](C(=O)N[C@@H](CCCNC(=N)N)C(=O)N[C@H](C(=O)O)C(C)C)C(C)C` (H-ARALAHGVRV-OH; N-terminus and C-terminus assumed), 9880 nM.

The target of another test is HLA-A02 (Homo sapiens, UniProt P04439, D140Y/D185E/D98H/E176V/E277Q/G131W/G231S/I119V/I121R/I166T/I218V/L300P/L318F/N151K/N90K/P208A/P217A/Q86G/Q94H/R138H/R169H/T345S). The test is described as follows: Competition binding assay using soluble HLA class I.
Regarding `CC[C@H](C)[C@H](NC(=O)[C@H](CC(N)=O)NC(=O)CNC(=O)[C@H](CC(C)C)NC(=O)[C@@H](N)Cc1c[nH]c2ccccc12)C(=O)N[C@H](C(=O)N[C@@H](CCSC)C(=O)N[C@@H](Cc1ccc(O)cc1)C(=O)N[C@@H](C)C(=O)O)[C@@H](C)CC`, the Ki was 14.5 nM.
Consider `CC(C)[C@H](NC(=O)[C@@H](NC(=O)[C@H](C)NC(=O)[C@H](CCC(N)=O)NC(=O)[C@@H](N)Cc1ccc(O)cc1)[C@@H](C)O)C(=O)N[C@@H](CS)C(=O)N[C@@H](C)C(=O)N[C@@H](CCCNC(=N)N)C(=O)N[C@@H](C)C(=O)O` (H-YQATVCARA-OH), for which the IC50 (as a rule, the concentration that gives 50% inhibition) was determined as 20 nM and the Ki was 20 nM.

The next test deals with T2, DRB1*0101 (Homo sapiens, UniProt P01903+P01911, A100R/D57E/F55L/F60I/F76Y/I96L/L162R/M171V/P40L/Q125E/R42F/V115G/Y59C).
T2 construct: endogenous in cells; host or cells: cell lysate
Put plainly: Competition binding assay using soluble HLA class II.
For the compound `CC[C@H](C)[C@H](NC(=O)[C@H](CC(C)C)NC(=O)[C@H](CC(=O)O)NC(=O)[C@H](C)NC(=O)[C@@H](N)CC(=O)O)C(=O)N[C@@H](CCC(=O)O)C(=O)N[C@@H](C)C(=O)N[C@@H](CC(N)=O)C(=O)N[C@@H](CC(C)C)C(=O)N[C@@H](CC(C)C)C(=O)N[C@@H](Cc1c[nH]c2ccccc12)C(=O)N[C@@H](CCCNC(=N)N)C(=O)N[C@@H](CCC(N)=O)C(=O)N[C@@H](CCC(=O)O)C(=O)N[C@@H](CCSC)C(=O)O`, the IC50 is 574 nM.
In turn, `CC[C@H](C)[C@H](NC(=O)[C@@H](NC(=O)[C@@H](N)[C@@H](C)O)[C@@H](C)O)C(=O)N[C@@H](CCSC)C(=O)N[C@@H](C)C(=O)N[C@@H](CCCCN)C(=O)N[C@@H](CC(N)=O)C(=O)N[C@@H](CCC(=O)O)C(=O)N[C@H](C(=O)N[C@@H](Cc1ccccc1)C(=O)N[C@@H](CS)C(=O)N[C@H](C(=O)N[C@@H](CCC(N)=O)C(=O)N1CCC[C@H]1C(=O)N[C@@H](CCC(=O)O)C(=O)O)C(C)C)C(C)C` (H-TTIMAKNEVFCVQPE-OH; N-terminus and C-terminus assumed) yielded a half-maximal inhibitory concentration (IC50) of 3730 nM.
Same read-out and setting: with `CSCC[C@H](NC(=O)[C@H](CC(C)C)NC(=O)[C@H](C)NC(=O)[C@H](CC(=O)O)NC(=O)[C@@H](NC(=O)[C@H](C)NC(=O)[C@@H](NC(=O)[C@@H](NC(=O)[C@@H](NC(=O)[C@@H](NC(=O)[C@@H](N)CC(=O)O)C(C)C)C(C)C)C(C)C)C(C)C)[C@@H](C)O)C(=O)N[C@H](C(=O)NCC(=O)N[C@@H](Cc1ccc(O)cc1)C(=O)N[C@H](C(=O)O)[C@@H](C)O)[C@@H](C)O` the figure was 456 nM.
Compound `CC(C)C[C@H](NC(=O)[C@H](CC(N)=O)NC(=O)CNC(=O)[C@@H](NC(=O)[C@H](C)NC(=O)[C@H](Cc1ccc(O)cc1)NC(=O)[C@H](CC(N)=O)NC(=O)[C@@H](NC(=O)CN)C(C)C)[C@@H](C)O)C(=O)N1CCC[C@H]1C(=O)NCC(=O)N[C@@H](CS)C(=O)N[C@@H](CO)C(=O)N[C@@H](Cc1ccccc1)C(=O)N[C@@H](CO)C(=O)O` displayed an IC50 of 4560 nM. This IC50 lies about 10-fold higher than the previous one.
Same read-out and setting: with `CC(C)[C@H](NC(=O)[C@H](CCCNC(=N)N)NC(=O)[C@H](CCC(N)=O)NC(=O)CNC(=O)[C@@H]1CCCN1C(=O)[C@H](CO)NC(=O)[C@H](Cc1ccc(O)cc1)NC(=O)[C@H](CCC(N)=O)NC(=O)[C@H](Cc1ccccc1)NC(=O)CNC(=O)[C@H](Cc1ccc(O)cc1)NC(=O)[C@H](CO)NC(=O)[C@H](CO)NC(=O)CN)C(=O)N[C@@H](CCC(=O)O)C(=O)O` the figure was 11 nM; with `CC[C@H](C)[C@H](NC(=O)[C@H](CC(C)C)NC(=O)[C@H](C)NC(=O)CNC(=O)[C@@H](NC(=O)[C@H](Cc1c[nH]c2ccccc12)NC(=O)[C@@H](NC(=O)[C@H](Cc1ccc(O)cc1)NC(=O)[C@@H](N)CO)[C@@H](C)O)[C@@H](C)O)C(=O)N[C@H](C(=O)N1CCC[C@H]1C(=O)N[C@@H](CS)C(=O)N[C@@H](C)C(=O)N[C@@H](C)C(=O)N[C@@H](CCC(=O)O)C(=O)O)[C@@H](C)O`, 5.63 nM; with `CC(C)C[C@H](NC(=O)[C@@H](NC(=O)[C@H](C)NC(=O)[C@H](C)NC(=O)[C@@H](NC(=O)[C@H](CO)NC(=O)[C@@H]1CCCN1C(=O)[C@H](CC(N)=O)NC(=O)[C@H](CC(C)C)NC(=O)[C@@H](NC(=O)[C@H](CC(C)C)NC(=O)[C@@H](NC(=O)[C@H](CCCCN)NC(=O)[C@H](Cc1ccc(O)cc1)NC(=O)CN)C(C)C)C(C)C)C(C)C)[C@@H](C)O)C(=O)O`, 8.4 nM.
